These results are taken from publication PMC12207366, “Protonated Glutamate and Aspartate Side Chains Can Recognize Phosphodiester Groups via Strong and Short Hydrogen Bonds in Biomacromolecular Complexes” (Angewandte Chemie (International Ed. in English), 2025).

The experiment addresses T1, PilF159-302 WT (Thermus thermophilus, UniProt Q72H73).
T1 sequence (Q72H73 159-302): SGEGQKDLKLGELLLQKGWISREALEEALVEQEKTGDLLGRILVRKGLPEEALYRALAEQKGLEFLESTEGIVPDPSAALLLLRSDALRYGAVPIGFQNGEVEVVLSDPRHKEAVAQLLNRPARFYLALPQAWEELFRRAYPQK
Briefly: ITC c-di-GMP binding to wild-type GSPII-B domain. The conditions noted are these: for -TΔS / Kd / ΔG / ΔH: 20 °C. From the text: To characterize c-di-GMP binding by PilF159-302, the Q190E and Q218E constructs via isothermal titration calorimetry (ITC) and X-ray crystallography unlabeled c-di-GMP was synthesized using a constitutively active mutant of a diguanylate cyclase from the thermophilic bacterium Thermogata maritima ^[4^4,4^5]. For NMR experiments ^13C,^15N labelled c-di-GMP was synthesized identically using ^13C,^15N labelled GTP as a substrate.
c-di-GMP binding capabilities of PilF159-302, its mutant constructs PilF159-302 Q190E and PilF159-302 Q218E at varying pH-values were investigated by isothermal titration calorimetry (ITC) experiments in triplicate. All measurements were conducted at 20 °C using a MicroCal ITC200 (Malvern Panalytical, UK). For PilF159-302 Q190E and PilF159-302 Q218E ITC-measurements were conducted in a pH range from pH 8.5 – 4.0 with the buffering agent adjusted to the respective pH-range. For the pH-range 8.5 – 7.5 a sample buffer of 50 mM Tris, 200 mM NaCl and 1 mM β-Me was used. For pH values 7.0 – 6.0 a sample buffer of 50 mM BisTris, 200 mM NaCl, 1 mM β-Me and for pH 5.5 – 4.0 a sample buffer of 50 mM NaAc, 200 mM NaCl, 1 mM β-Me was used. For reference PilF159-302 was titrated with c-di-GMP at pH 8.5 in 50 mM Tris pH 8.5, 200 mM NaCl, 1 mM β-Me and at pH 4.0 in 50 mM NaAc pH 4.0, 200 mM NaCl, 1 mM β-Me. In order to test whether the buffer reagents have an influence on the measured thermodynamic parameters, cross measurements were performed in the region of the pH transitions. To this end, additional measurements with BisTris at pH 7.5 and 5.5, with Tris at pH 7.0 and with NaAc at pH 6.0 were carried out as singlets. The buffer agents had no influence on measured KD-values and resulted only in small changes of the ΔH values. All protein samples were dialyzed two times against 500 ml of the respective sample buffer (1 L in total) at 4 °C for at least 16 hours per step using a dialysis chamber with a nominal 3.5 kDa molecular weight cutoff (ZelluTrans, ROTH). To prepare the ITC-measurements protein and c-di-GMP sample were adjusted to the respective concentration using the dialysis buffer. Protein and c-di-GMP concentration ranged from 20 to 50 µM (protein) and 200 to 500 µM (c-di-GMP) depending on the c-di-GMP binding capabilities at the different pH-values to optimize precision of the measurements. For pH 8.5 – 7.0 a protein concentration of 50 µM with 500 µM c-di-GMP was used. For pH 6.5 – 5.0 a protein concentration of 30 µM with 300 µM c-di-GMP and for pH 4.5 – 4.0 a protein concentration of 20 µM with 200 µM c-di-GMP was used. The following protocol was utilized for each measurement. To 270 µl protein a total of 40 µl c-di-GMP was titrated in 21 injections with a duration of 4 s in intervals of 180 s with a stirring speed of 750 rpm. The first injection of 0.2 µl c-di-GMP with a duration of 0.4 s was carried out after an initial delay of 120 s, which was followed by 20 injections of 2 µl each with a duration of 4 s. During the measurement, the feedback mode was set to high and the reference power to 11 µcal s^-1. All thermograms were processed using Origin 7.0 (OriginLab) using the one-site binding model.

With `Nc1nc2c(ncn2C2OC3COP(=O)(O)OC4C(COP(=O)(O)OC3C2O)OC(n2cnc3c(=O)[nH]c(N)nc32)C4O)c(=O)[nH]1` (stereo not drawn) [c-di-GMP], where the note is “ITC, pH 4.0 versus pH 8.5”, the “c-di-GMP binding affinity, pH dependence” value is “similar”. In addition, where the note is “Na-Acetate, pH 4.0”, the “-TΔS” value is -4.81 kcal/mol, the Kd is 4 nM, the ΔG was -11.26 kcal/mol and the ΔH is on record as -6.45 kcal/mol. For the same compound, under “Tris, pH 8.5”, the “-TΔS” value is recorded as 0.63 kcal/mol; the affinity, expressed as Kd, was 9 nM; the ΔG is -10.78 kcal/mol; the ΔH is -11.41 kcal/mol.

What is called Kd is the concentration at which binding is half-saturated. Low values mean a tighter complex, high ones a looser complex.
